Reference: patent publication US10344025B2, “GLS1 inhibitors for treating disease” (Board of Regents, The University of Texas System, priority 2014, dated 2019)
Where “and” joins values, the source holds several entries; their conditions need not be identical. Equal values may be shown once.

What was measured:
A549 cells = test: Proliferation Assay (A549 viability, Cell Titer Fluor, 72 hours); format: cell-based; settings: Homo sapiens, A549, 72 h
Summary of the method: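 Cell Titer Fluor fluorescence after 72 h compound treatment (0.5% DMSO, 37 °C, 5% CO2) of A549 cells plated 24 h earlier at 1000/well. Four-parameter logistic fitting gave IC50.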

[1] = biological target: purified recombinant human GAC (GLS1) (Homo sapiens (Human), UniProt O94925); test: GLS1 Enzymatic Activity Assay (dual-coupled enzymatic assay, resorufin/Amplex UltraRed readout); format: biochemical;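 further: glutamate from GAC coupled via glutamate oxidase and peroxidase to resorufin, read as fluorescence (ex 530, em 590 nm) kinetically or at 20 min, four-parameter logistic IC50 fit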
Sequence of purified recombinant human GAC (GLS1) (O94925 other isoform, or with tags, fused parts or gaps): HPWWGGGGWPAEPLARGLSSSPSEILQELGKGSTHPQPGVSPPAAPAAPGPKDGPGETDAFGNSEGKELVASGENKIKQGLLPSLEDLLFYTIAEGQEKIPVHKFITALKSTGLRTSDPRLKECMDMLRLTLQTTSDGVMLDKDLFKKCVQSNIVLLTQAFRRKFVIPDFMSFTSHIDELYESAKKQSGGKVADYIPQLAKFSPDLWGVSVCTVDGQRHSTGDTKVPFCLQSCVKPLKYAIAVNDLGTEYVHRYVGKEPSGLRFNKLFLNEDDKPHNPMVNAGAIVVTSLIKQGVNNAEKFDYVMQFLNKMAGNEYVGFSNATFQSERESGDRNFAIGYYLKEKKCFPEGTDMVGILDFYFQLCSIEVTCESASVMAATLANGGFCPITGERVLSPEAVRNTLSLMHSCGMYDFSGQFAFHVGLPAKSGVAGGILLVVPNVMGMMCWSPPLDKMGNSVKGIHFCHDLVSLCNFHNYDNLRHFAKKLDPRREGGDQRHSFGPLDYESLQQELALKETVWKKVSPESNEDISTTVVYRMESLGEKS

Structure (SMILES)	EC50 (A549 cells)	IC50 [1]
O=C(NCc1ccccc1)c1cn(CCCCc2nnc(C(=O)NCCO)s2)nn1 [Example 41, 5-{4-[4-(benzylcarbamoyl)-1H-1,2,3-triazol-1-yl]butyl}-N-(2-hydroxyethyl)-1,3,4-thiadiazole-2-carboxamide]	500 to 5000 nM	500 to 5000 nM
O=C(NCc1cccc(OC(F)(F)F)c1)c1cn(CCCCc2nnc(C(=O)NCCO)s2)nn1 [Example 45, N-(2-hydroxyethyl)-5-{4-[4-({[3-(trifluoromethoxy)phenyl]methyl}carbamoyl)-1H-1,2,3-triazol-1-yl]butyl}-1,3,4-thiadiazole-2-carboxamide]	500 to 5000 nM	100 to 500 nM
O=C(NCc1cccc(OC(F)(F)F)c1)c1cn(CCCCc2nnc(C(=O)NCc3cccc(OC(F)(F)F)c3)s2)nn1 [Example 46, N-{[3-(trifluoromethoxy)phenyl]methyl}-5-{4-[4-({[3-(trifluoromethoxy)phenyl]methyl}carbamoyl)-1H-1,2,3-triazol-1-yl]butyl}-1,3,4-thiadiazole-2-carboxamide]	< 100 nM	< 100 nM
O=C(NCc1cccc(OC(F)(F)F)c1)c1cn(CCCCc2nnc(C(=O)NCc3ccccn3)s2)nn1 [Example 47, N-(pyridin-2-ylmethyl)-5-{4-[4-({[3-(trifluoromethoxy)phenyl]methyl}carbamoyl)-1H-1,2,3-triazol-1-yl]butyl}-1,3,4-thiadiazole-2-carboxamide]	100 to 500 nM	< 100 nM
CC(C)(O)CNC(=O)c1nnc(CCCCn2cc(C(=O)NCc3cccc(OC(F)(F)F)c3)nn2)s1 [Example 48, N-(2-hydroxy-2-methylpropyl)-5-{4-[4-({[3-(trifluoromethoxy)phenyl]methyl}carbamoyl)-1H-1,2,3-triazol-1-yl]butyl}-1,3,4-thiadiazole-2-carboxamide]	500 to 5000 nM	500 to 5000 nM

The next lines start with the values.

EC50 (A549 cells)	IC50 [1]	Structure (SMILES)
< 100 nM	< 100 nM	CC(C)CNC(=O)c1nnc(CCCCc2ccc(NC(=O)Cc3cccc(OC(F)(F)F)c3)nn2)s1 [Example 31, N-(2-methylpropyl)-5-[4-(6-{2-[3-(trifluoromethoxy)phenyl]acetamido}pyridazin-3-yl)butyl]-1,3,4-thiadiazole-2-carboxamide]
< 100 nM	< 100 nM	O=C(Cc1cccc(OC(F)(F)F)c1)Nc1ccc(CCCCc2nnc(C(=O)NCc3ccccn3)s2)nn1 [Example 32, N-(pyridin-2-ylmethyl)-5-[4-(6-{2-[3-(trifluoromethoxy)phenyl]acetamido}pyridazin-3-yl)butyl]-1,3,4-thiadiazole-2-carboxamide]
< 100 nM	< 100 nM	O=C(Cc1cccc(OC(F)(F)F)c1)Nc1ccc(CCCCc2nnc(C(=O)NCC3COC3)s2)nn1 [Example 33, N-(oxetan-3-ylmethyl)-5-[4-(6-{2-[3-(trifluoromethoxy)phenyl]acetamido}pyridazin-3-yl)butyl]-1,3,4-thiadiazole-2-carboxamide]
100 to 500 nM	< 100 nM and 100 to 500 nM	CC(C)(O)CNC(=O)c1nnc(CCCCc2ccc(NC(=O)Cc3cccc(OC(F)(F)F)c3)nn2)s1 [Example 34, N-(2-hydroxy-2-methylpropyl)-5-[4-(6-{2-[3-(trifluoromethoxy)phenyl]acetamido}pyridazin-3-yl)butyl]-1,3,4-thiadiazole-2-carboxamide]
< 100 nM	< 100 nM	O=C(Cc1cccc(OC(F)(F)F)c1)Nc1ccc(CCCCc2nnc(C(=O)NCc3ccccc3)s2)nn1 [Example 36, N-benzyl-5-[4-(6-{2-[3-(trifluoromethoxy)phenyl]acetamido}pyridazin-3-yl)butyl]-1,3,4-thiadiazole-2-carboxamide]
< 100 nM	< 100 nM	O=C(Cc1cccc(OC(F)(F)F)c1)Nc1ccc(CCCCc2nnc(C(=O)NCCO)s2)nn1 [Example 37, N-(2-hydroxyethyl)-5-[4-(6-{2-[3-(trifluoromethoxy)phenyl]acetamido}pyridazin-3-yl)butyl]-1,3,4-thiadiazole-2-carboxamide]
